According to ChEMBL document CHEMBL5244269, “Improving metabolic stability and removing aldehyde oxidase liability in a 5-azaquinazoline series of IRAK4 inhibitors” (Bioorg Med Chem, 2020):

How the values were obtained:
SUD4 [1] = assay: Growth inhibition of human SU-DHL-4 cells at 1.7 uM incubated for 3 days (reference value: 2%); format: functional; conditions: SU-DHL-4, 72 h, time 3 day, read-out: GI
SUD4 [2] = assay: Growth inhibition of human SU-DHL-4 cells at 0.33 uM incubated for 3 days (reference value: 2%); format: functional; conditions: SU-DHL-4, 72 h, time 3 day, read-out: GI
SUD4 [3] = assay: Growth inhibition of human SU-DHL-4 cells at 0.17 uM incubated for 3 days (reference value: 2%); format: functional; conditions: SU-DHL-4, 72 h, time 3 day, read-out: GI
SUD4 [4] = assay: Growth inhibition of human SU-DHL-4 cells at 10 uM incubated for 3 days (reference value: 2%); format: functional; conditions: SU-DHL-4, 72 h, time 3 day, read-out: GI
SUD4 [5] = assay: Growth inhibition of human SU-DHL-4 cells at 3.3 uM incubated for 3 days (reference value: 2%); format: functional; conditions: SU-DHL-4, 72 h, time 3 day, read-out: GI
[6] = Oral bioavailability in rat at 1 mg/kg; format: ADME, organism-based; conditions: in vivo
OCI-Ly10 [7] = assay: Growth inhibition of human OCILY10 cells at 1.7 uM incubated for 3 days (reference value: -2%); format: functional; conditions: OCI-Ly10, 72 h, time 3 day, read-out: GI
OCI-Ly10 [8] = assay: Growth inhibition of human OCILY10 cells at 0.17 uM incubated for 3 days (Rvb= -2%); format: functional; conditions: OCI-Ly10, 72 h, time 3 day, read-out: GI
OCI-Ly10 [9] = assay: Growth inhibition of human OCILY10 cells at 3.3 uM incubated for 3 days (reference value: -2%); format: functional; conditions: OCI-Ly10, 72 h, time 3 day, read-out: GI
OCI-Ly10 [10] = assay: Growth inhibition of human OCILY10 cells at 10 uM incubated for 3 days (reference value: -2%); format: functional; conditions: OCI-Ly10, 72 h, time 3 day, read-out: GI
[11] = biological target: T1, Phosphatidylinositol 4,5-bisphosphate 3-kinase catalytic subunit delta isoform (Homo sapiens) (UniProt O00329); assay: Inhibition of PI3Kdelta (unknown origin) at 0.1 uM relative to control
T1 sequence (whole entry): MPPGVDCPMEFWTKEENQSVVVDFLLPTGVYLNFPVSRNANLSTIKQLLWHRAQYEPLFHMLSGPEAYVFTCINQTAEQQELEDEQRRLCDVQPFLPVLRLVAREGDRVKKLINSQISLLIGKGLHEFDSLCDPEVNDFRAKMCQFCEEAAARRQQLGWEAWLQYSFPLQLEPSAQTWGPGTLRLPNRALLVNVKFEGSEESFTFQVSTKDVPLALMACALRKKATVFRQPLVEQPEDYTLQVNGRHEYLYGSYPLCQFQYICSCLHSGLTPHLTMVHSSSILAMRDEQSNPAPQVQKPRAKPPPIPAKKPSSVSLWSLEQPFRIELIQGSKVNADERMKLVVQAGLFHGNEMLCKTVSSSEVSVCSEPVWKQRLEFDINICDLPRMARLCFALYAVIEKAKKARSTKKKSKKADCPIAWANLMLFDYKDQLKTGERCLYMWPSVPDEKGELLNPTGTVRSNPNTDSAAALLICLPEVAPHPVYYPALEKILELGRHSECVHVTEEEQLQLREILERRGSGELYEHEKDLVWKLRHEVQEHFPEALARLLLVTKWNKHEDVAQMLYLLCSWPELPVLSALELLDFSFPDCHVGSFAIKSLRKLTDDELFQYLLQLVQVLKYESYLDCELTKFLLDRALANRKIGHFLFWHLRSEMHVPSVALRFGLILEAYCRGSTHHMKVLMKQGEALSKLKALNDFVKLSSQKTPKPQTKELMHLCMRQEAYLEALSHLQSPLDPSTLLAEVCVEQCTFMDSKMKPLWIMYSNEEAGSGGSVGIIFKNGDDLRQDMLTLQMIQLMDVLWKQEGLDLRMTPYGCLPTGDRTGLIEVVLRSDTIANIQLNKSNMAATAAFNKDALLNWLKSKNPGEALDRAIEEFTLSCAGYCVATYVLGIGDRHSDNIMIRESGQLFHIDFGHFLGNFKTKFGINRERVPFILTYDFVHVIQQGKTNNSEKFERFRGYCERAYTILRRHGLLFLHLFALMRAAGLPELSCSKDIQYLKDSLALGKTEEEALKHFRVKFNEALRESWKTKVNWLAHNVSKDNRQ

[12] = Metabolic stability in monkey hepatocytes assessed as intrinsic clearance measured per 10^6 cells; format: ADME, cell-based, Macaca mulatta, Hepatocyte; conditions: rhesus monkey, read-out: CLH
[13] = Metabolic stability in human cytosol assessed as intrinsic clearance; format: ADME, subcellular
[14] = Metabolic stability in mouse liver microsomes assessed as intrinsic clearance; format: ADME, Microsome; conditions: read-out: CLH
[15] = Terminal half life in CD1 mouse at 0.5 mg/kg, iv; format: ADME, organism-based; conditions: in vivo, read-out: beta t1/2 (converted)
[16] = Plasma protein binding in monkey assessed as free fraction by equilibrium dialysis analysis; format: ADME, cell-free, Macaca mulatta; conditions: rhesus monkey
[17] = Volume of distribution at steady state in Han Wistar rat at 2 mg/kg, po or 1 mg/kg, iv; format: ADME, organism-based; conditions: in vivo
[18] = Metabolic stability in rat hepatocytes assessed as intrinsic clearance measured per 10^6 cells; format: ADME, cell-based, Hepatocyte; conditions: read-out: CLH
[19] = Volume of distribution at steady state in CD1 mouse at 1 mg/kg, po or 0.5 mg/kg, iv; format: ADME, organism-based; conditions: in vivo
[20] = Plasma protein binding in rat assessed as free fraction by equilibrium dialysis analysis; format: ADME, cell-free
[21] = Metabolic stability in human liver microsomes assessed as half life; format: ADME, Microsome
[22] = Metabolic stability in minipig liver microsomes assessed as intrinsic clearance; format: ADME, Sus scrofa domesticus, Microsome; conditions: pig, read-out: CLH
[23] = Metabolic stability in monkey liver microsomes assessed as intrinsic clearance; format: ADME, Macaca mulatta, Microsome; conditions: rhesus monkey, read-out: CLH
[24] = Clearance in cynomolgus monkey at 1 mg/kg, iv; format: ADME, organism-based, Macaca fascicularis; conditions: in vivo
[25] = Oral bioavailability in Han Wistar rat at 2 mg/kg; format: ADME, organism-based; conditions: in vivo
[26] = Terminal half life in Han Wistar rat at 1 mg/kg, iv; format: ADME, organism-based; conditions: in vivo, read-out: beta t1/2 (converted)
[27] = Metabolic stability in rat liver microsomes assessed as intrinsic clearance; format: ADME, Microsome; conditions: read-out: CLH
[28] = biological target: T2, Interleukin-1 receptor-associated kinase 4 (Homo sapiens) (UniProt Q9NWZ3); assay: Inhibition of IRAK4 (unknown origin) at 0.1 uM relative to control
T2 sequence (whole entry): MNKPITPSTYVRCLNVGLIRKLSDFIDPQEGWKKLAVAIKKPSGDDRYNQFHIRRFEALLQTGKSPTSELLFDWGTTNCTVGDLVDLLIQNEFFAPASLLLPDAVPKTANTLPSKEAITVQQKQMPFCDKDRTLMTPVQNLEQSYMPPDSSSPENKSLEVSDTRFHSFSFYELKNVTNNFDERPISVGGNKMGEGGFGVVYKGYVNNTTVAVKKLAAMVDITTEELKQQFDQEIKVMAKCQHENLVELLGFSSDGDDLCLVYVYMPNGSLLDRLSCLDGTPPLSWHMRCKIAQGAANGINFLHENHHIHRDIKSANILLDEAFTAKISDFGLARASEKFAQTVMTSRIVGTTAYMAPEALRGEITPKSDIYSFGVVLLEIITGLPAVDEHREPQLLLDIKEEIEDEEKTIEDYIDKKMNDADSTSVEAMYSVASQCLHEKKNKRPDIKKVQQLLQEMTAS

[29] = Metabolic stability in dog hepatocytes assessed as intrinsic clearance measured per 10^6 cells; format: ADME, cell-based, Canis lupus familiaris, Hepatocyte; conditions: read-out: CLH
[30] = Oral bioavailability in CD1 mouse at 1 mg/kg; format: ADME, organism-based; conditions: in vivo
[31] = Metabolic stability in minipig hepatocytes assessed as intrinsic clearance measured per 10^6 cells; format: ADME, cell-based, Sus scrofa domesticus, Hepatocyte; conditions: pig, read-out: CLH
[32] = Plasma protein binding in human assessed as free fraction by equilibrium dialysis analysis; format: ADME, cell-free

## Cc1ncc(-c2nc3c(NC(C)C)nc(Nc4cnn(C5CC6(C5)CN(C)C6)c4)nc3cc2F)cn1
SUD4 [1]
  inhibition of growth at 1.7 µM: 3%
SUD4 [2]
  inhibition of growth at 0.33 µM: 3%
SUD4 [3]
  inhibition of growth at 0.17 µM: 2%
SUD4 [4]
  inhibition of growth at 10 µM: 6%
SUD4 [5]
  inhibition of growth at 3.3 µM: 4%
[6]
  bioavailability: ≤ 10%

## CC[C@@H]1[C@H](F)C(=O)N[C@@H]1COc1nccc2cc(C(N)=O)c(OC)cc12 [ZIMLOVISERTIB]
OCI-Ly10 [7]
  inhibition of growth at 1.7 µM: 10%
OCI-Ly10 [8]
  inhibition of growth at 0.17 µM: 5%
OCI-Ly10 [9]
  inhibition of growth at 3.3 µM: 20%
OCI-Ly10 [10]
  inhibition of growth at 10 µM: 63%

## Cc1ncc(-c2nc3c(OC4(C)CC4)nc(Nc4cnn(C5CCN(C)CC5)c4)nc3cc2F)cn1
[11]
  inhibition: 61%
[12]
  hepatocyte CLint: 4.7 µL/min/1e6 cells
[13]
  microsomal CLint: < 0.5 µL/min/mg
[14]
  microsomal CLint: 13 µL/min/mg
[15]
  half-life: 4.2 h
[16]
  fraction unbound: 0.33
[17]
  Vdss: 4.3 L/kg
[18]
  hepatocyte CLint: 5.6 µL/min/1e6 cells
[19]
  Vdss: 4.1 L/kg
[20]
  fraction unbound: 0.21
[21]
  half-life: 3 h
[22]
  microsomal CLint: 18 µL/min/mg
[23]
  microsomal CLint: 35 µL/min/mg
[24]
  clearance: 68 mL/min/kg
[25]
  bioavailability: 55%
[26]
  half-life: 5.2 h
[27]
  microsomal CLint: 16 µL/min/mg
[28]
  inhibition: 102%
[29]
  hepatocyte CLint: 4.5 µL/min/1e6 cells
[30]
  bioavailability: 66%
[31]
  hepatocyte CLint: 8.2 µL/min/1e6 cells
[32]
  fraction unbound: 0.21
